The source of these data is ChEMBL document CHEMBL5678818, “Discovery of potent SOS1 inhibitors that block RAS activation via disruption of the RAS-SOS1 interaction” (Proc Natl Acad Sci U S A, 2019).

Usually IC50 stands for the concentration at which inhibition is half-maximal.

Sequence of Epidermal growth factor receptor (P00533 whole entry): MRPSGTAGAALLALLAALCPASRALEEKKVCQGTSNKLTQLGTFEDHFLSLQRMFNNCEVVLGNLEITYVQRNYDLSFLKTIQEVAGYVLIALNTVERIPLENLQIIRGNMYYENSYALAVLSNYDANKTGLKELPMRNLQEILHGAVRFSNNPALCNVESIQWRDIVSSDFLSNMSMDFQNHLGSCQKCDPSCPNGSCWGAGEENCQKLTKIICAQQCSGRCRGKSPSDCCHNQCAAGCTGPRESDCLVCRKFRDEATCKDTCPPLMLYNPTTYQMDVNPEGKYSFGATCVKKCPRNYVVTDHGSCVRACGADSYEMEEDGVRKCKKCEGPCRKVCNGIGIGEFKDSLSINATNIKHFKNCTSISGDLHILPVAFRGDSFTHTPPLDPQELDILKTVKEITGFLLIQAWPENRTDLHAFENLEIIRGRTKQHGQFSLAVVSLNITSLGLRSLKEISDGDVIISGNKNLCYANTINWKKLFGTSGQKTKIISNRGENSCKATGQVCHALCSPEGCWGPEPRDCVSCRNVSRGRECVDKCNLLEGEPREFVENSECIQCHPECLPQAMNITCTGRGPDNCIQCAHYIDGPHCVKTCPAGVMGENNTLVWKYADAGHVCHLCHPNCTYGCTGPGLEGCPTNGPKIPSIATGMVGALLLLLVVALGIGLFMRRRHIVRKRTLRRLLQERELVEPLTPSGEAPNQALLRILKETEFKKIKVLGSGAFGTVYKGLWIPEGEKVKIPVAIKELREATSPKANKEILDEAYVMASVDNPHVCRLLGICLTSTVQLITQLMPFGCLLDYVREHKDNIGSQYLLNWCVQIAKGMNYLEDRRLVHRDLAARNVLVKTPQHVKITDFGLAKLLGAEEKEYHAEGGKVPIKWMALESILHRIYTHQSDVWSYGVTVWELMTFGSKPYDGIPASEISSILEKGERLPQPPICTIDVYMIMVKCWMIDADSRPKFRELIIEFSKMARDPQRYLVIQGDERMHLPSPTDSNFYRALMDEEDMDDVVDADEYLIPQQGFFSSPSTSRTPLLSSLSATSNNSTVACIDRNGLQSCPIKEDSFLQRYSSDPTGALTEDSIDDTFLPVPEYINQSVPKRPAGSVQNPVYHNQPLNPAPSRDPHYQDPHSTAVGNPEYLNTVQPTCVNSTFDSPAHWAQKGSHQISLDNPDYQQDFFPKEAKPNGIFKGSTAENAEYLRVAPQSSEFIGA

The target of the first test is SOS1-KRAS (Homo sapiens, UniProt Q07889). Kind of test: Inhibition of N-terminal GST-tagged recombinant human KRAS G12C mutant (1 to 169 residues) expressed in Escherichia coli/N-terminal His10-tagged wild-type recombinant human SOS1 catalytic domain (564 to 1049 residues) expressed in Escherichia coli protein-protein interaction preincubated for 2 mins with KRAS followed by SOS1 addition measured after 60 mins in presence of anti-6His-XL665 by HTRF analysis. On the technique in general: TR-FRET usually uses a lanthanide donor and a delayed reading to cut background.
Sequence of SOS1-KRAS (Q07889 whole entry, looked up, stated change not applied, the tested form may be a part): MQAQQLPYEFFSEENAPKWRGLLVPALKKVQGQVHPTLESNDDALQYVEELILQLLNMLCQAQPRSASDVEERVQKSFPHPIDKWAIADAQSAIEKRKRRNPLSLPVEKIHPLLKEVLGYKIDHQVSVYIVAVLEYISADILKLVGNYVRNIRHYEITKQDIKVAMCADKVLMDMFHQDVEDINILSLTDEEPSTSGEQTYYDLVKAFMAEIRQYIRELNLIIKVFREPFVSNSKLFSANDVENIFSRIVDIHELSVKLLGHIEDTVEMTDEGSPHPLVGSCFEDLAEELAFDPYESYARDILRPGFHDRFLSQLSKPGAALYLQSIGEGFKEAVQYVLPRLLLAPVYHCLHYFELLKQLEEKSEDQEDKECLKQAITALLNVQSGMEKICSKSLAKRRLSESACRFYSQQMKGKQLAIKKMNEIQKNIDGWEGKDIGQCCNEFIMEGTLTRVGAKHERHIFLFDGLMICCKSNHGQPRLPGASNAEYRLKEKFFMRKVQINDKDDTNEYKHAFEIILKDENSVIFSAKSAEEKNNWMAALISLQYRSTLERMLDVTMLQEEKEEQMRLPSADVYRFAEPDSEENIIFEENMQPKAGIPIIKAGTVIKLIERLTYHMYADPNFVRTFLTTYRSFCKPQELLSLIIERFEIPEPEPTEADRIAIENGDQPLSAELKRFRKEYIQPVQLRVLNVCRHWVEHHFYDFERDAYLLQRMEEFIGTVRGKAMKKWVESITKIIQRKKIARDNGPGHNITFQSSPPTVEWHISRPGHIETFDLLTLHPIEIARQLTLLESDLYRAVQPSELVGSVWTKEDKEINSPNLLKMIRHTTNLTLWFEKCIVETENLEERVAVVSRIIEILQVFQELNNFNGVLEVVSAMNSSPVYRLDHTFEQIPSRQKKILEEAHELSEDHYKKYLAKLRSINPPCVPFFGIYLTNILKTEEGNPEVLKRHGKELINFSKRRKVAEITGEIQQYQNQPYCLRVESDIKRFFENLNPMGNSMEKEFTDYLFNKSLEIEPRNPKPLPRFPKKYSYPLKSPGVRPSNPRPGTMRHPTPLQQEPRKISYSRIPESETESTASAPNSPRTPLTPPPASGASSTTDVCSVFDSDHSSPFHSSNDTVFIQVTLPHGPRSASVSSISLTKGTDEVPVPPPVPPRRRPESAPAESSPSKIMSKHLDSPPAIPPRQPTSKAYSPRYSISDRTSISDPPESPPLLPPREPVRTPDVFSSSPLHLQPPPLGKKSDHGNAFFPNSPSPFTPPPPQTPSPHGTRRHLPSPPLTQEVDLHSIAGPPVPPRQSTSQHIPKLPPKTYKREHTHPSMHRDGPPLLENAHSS
Regarding `CNCc1ccccc1-c1ccc(C(C)Nc2nc(C)nc3cc(OC)c(OC)cc23)s1` (stereo unspecified), the IC50 came to 41 nM.
Same read-out and setting: under `COc1cc2nc(C)nc(NC(C)c3ccc(-c4ccccc4CNCCO)s3)c2cc1OC` (stereo unspecified) stands 46 nM; under `CCNCc1ccccc1-c1ccc(C(C)Nc2nc(C)nc3cc(OC)c(OC)cc23)s1` (stereo unspecified), 55 nM.
The same measure, in the same setting: under `COc1cc2nc(C)nc(NC(C)c3ccc(-c4ccccc4CN(C)C)s3)c2cc1OC` (stereo unspecified) stands 40 nM; under `COc1cc2nccc(N[C@H](C)c3cccc4ccccc34)c2cc1OC`, 2590 nM; under `COc1cc2nc(C)nc(NC(C)c3ccc(-c4ccccc4CN4CC(F)C4)s3)c2cc1OC` (stereo unspecified), 410 nM.
On the same count and under the same terms, for `COc1cc2nc(C)nc(NC(C)c3ccc(-c4ccccc4S(=O)(=O)N(C)C)s3)c2cc1OC` (stereo unspecified) the value was 2160 nM; for `COc1cc2nc(C)nc(NC(C)c3ccc(-c4ccccc4CNCC(F)(F)F)s3)c2cc1OC` (stereo unspecified), 3150 nM; for `COc1cc2nc(C)nc(NC(C)c3ccc(-c4ccccc4CN)s3)c2cc1OC` (stereo unspecified), 80 nM.
As to `CCN(CC)Cc1ccccc1-c1ccc(C(C)Nc2nc(C)nc3cc(OC)c(OC)cc23)s1` (stereo unspecified), the 50% inhibitory concentration (IC50) worked out at 170 nM.
For the compound `COc1cc2nc(C)nc(N[C@H](C)c3cccc(Br)c3)c2cc1OC`, the concentration for half-maximal inhibition (IC50) stood at 170 nM.
The same measure, in the same setting: under `COc1cc2nc(C)nc(NC(C)c3ccc(-c4ccccc4CN4CCC4)s3)c2cc1OC` (stereo unspecified) stands 76 nM; under `COc1cc2nc(C)nc(NC(C)c3ccc(-c4ccccc4CO)s3)c2cc1OC` (stereo unspecified), 280 nM; under `COc1cc2nc(C)nc(NC(C)c3ccc(-c4ccccc4C(N)=O)s3)c2cc1OC` (stereo unspecified), 3210 nM.
Take `COc1cc2nc(C)nc(NC(C)c3ccc(-c4ccccc4CCN)s3)c2cc1OC` (stereo unspecified): the concentration for half-maximal inhibition (IC50) is 51 nM.
Take `COc1cc2ccnc(N[C@H](C)c3cccc4ccccc34)c2cc1OC`: the half-maximal inhibitory concentration (IC50) was determined as 12200 nM.
As for `COc1cc2nc(C(F)(F)F)nc(N[C@H](C)c3cccc4ccccc34)c2cc1OC`, the half-inhibitory concentration (IC50) was 1450 nM.
Still for that read-out and setting: for `CCCCNCc1ccccc1-c1ccc(C(C)Nc2nc(C)nc3cc(OC)c(OC)cc23)s1` (stereo unspecified) the value was 98 nM; for `COc1cc2nc(C)nc(NC(C)c3ccc(-c4ccccc4CN(C)CCO)s3)c2cc1OC` (stereo unspecified), 47 nM; for `COc1cc2nc(N(C)C)nc(N[C@H](C)c3cccc4ccccc34)c2cc1OC`, 800 nM.
Same read-out and setting: for `COc1cc2nc(C)nc(NC(C)c3ccc(-c4ccccc4CNCC(F)F)s3)c2cc1OC` (stereo unspecified) the value was 780 nM; for `COc1cc2nc(C)nc(N(C)[C@H](C)c3cccc(Br)c3)c2cc1OC`, over 20000 nM; for `COc1cc2nc(C)nc(NC(C)c3ccc(-c4ccccc4CNCc4ccccc4)s3)c2cc1OC` (stereo unspecified), 470 nM.
The same measure, in the same setting: under `COc1cc2nc(C)nc(NC(C)c3ccc(-c4ccccc4C(C)(C)N)s3)c2cc1OC` (stereo unspecified) stands 400 nM.
`COc1cc2nc(C)nc(NC(C)c3ccc(-c4ccc(F)cc4CNC(C)=O)s3)c2cc1OC` (stereo unspecified): the half-inhibitory concentration (IC50) was found to be 590 nM.
Turning to `COc1cc2nc(C)nc(NC(C)c3ccc(-c4ccccc4[C@@H](C)N)s3)c2cc1OC` (stereo partly specified), the IC50 amounted to 200 nM.
Turning to `COCCNCc1ccccc1-c1ccc(C(C)Nc2nc(C)nc3cc(OC)c(OC)cc23)s1` (stereo unspecified), the IC50 was 100 nM.
Still for that read-out and setting: for `COc1cc2nc(C)nc(NC(C)c3ccc(-c4ccccc4[C@H](C)N)s3)c2cc1OC` (stereo partly specified) the value was 230 nM.
Same read-out and setting: under `COc1cc2nc(C)nc(NC(C)c3ccc(-c4ccccc4C#N)s3)c2cc1OC` (stereo unspecified) stands 590 nM; under `COc1cc2nc(C)nc(NC(C)c3ccc(-c4ccccc4S(C)(=O)=O)s3)c2cc1OC` (stereo unspecified), 1410 nM.

Another test has as its target Epidermal growth factor receptor (Homo sapiens, UniProt P00533). Briefly: Inhibition of human EGFR using biotin-aminohexyl-AEEEEYFELVAKKK as substrate preincubated for 15 mins followed by substrate/ATP addition measured after 20 mins by FRET assay.
On to `COc1cc2nc(C)nc(N[C@H](C)c3cccc(Br)c3)c2cc1OC`, for which the half-maximal inhibitory concentration (IC50) was over 20000 nM.
Same read-out and setting: for `COc1cc2nc(C)nc(N[C@H](C)c3cccc4ccccc34)c2cc1OC` the value was over 20000 nM; for `COc1cc2ccnc(N[C@H](C)c3cccc4ccccc34)c2cc1OC`, over 20000 nM; for `COc1cc2nc(C(F)(F)F)nc(N[C@H](C)c3cccc4ccccc34)c2cc1OC`, over 20000 nM.
On the same count and under the same terms, for `COc1cc2nc(N(C)C)nc(N[C@H](C)c3cccc4ccccc34)c2cc1OC` the value was over 20000 nM; for `COc1cc2nc(C)nc(N(C)[C@H](C)c3cccc(Br)c3)c2cc1OC`, over 20000 nM.
